Experiments:
[1] = tested on: skin hair follicles and sebaceous glands of rats; assay: Rat hair loss model: histopathological grading of skin hair follicles and sebaceous glands; type: in vivo, Wistar rats; conditions: 60 days, 10 rats per group; for number of rats with hair follicle and sebaceous gland grade +++: grade +++ (most severe); for number of rats with hair follicle and sebaceous gland grade ±: grade ± (lesions limited); for number of rats with hair follicle and sebaceous gland grade −: grade − (normal structure)
Excerpt: Wistar rats were, according to weights, randomly divided into the negative control group (75% ethanol for external use), model group (75% ethanol for external use), positive control group (external 5% minoxidil tincture), CLY-1 external treatment group (external 5% CLY-1 tincture), CLY-2 external treatment group (external 5% CLY-2 tincture), CLY-3 external treatment group (external 5% CLY-3 tincture), CLY-4 external treatment group (external 5% CLY-4 tincture), and CLY-5 external treatment group (external 5% CLY-5 tincture) according to their body weight CLY-8 external treatment group (external 5% CLY-8 tincture), CLY-11 external treatment group (external 5% CLY-11 tincture), CLY-19 external treatment group (external 5% CLY-19 tincture), CLY-36 external treatment group (external 5% CLY-36 tincture), CLY-39 external treatment group (external 5% CLY-39 tincture), CLY-1 intravenous injection group (2 mg/kg·d), CLY-3 intravenous injection group (2 mg/kg·d), CLY-4 intravenous injection group (2 mg/kg·d) CLY-5 intravenous injection group (2 mg/kg·d), CLY-8 intravenous injection group (2 mg/kg·d), CLY-11 intravenous injection group (2 mg/kg·d), CLY-19 intravenous injection group (2 mg/kg·d), CLY-36 intravenous injection group (2 mg/kg·d), and CLY-39 intravenous injection group (2 mg/kg·d), with 10 rats in each group. Before the experiment, an area of 4 cm×5 cm was selected on each rat on the back of the neck to remove hair as the observation area. In addition to the negative control group, rats were subcutaneously injected with testosterone propionate injection [5 ml/(kg·d)] once a day for 60 days to establish the androgenic alopecia (AGA) model. […] At the same time, the drug was applied to the observation area on the back of the rats in the corresponding drug group at the rate of 2 mL/(one time), twice a day, at an interval of 8 hours; Intravenous administration once a day. The negative control group and the model control group were smeared with 75% ethanol solution, 2 mL/(one rat per time), twice a day, for 60 days.
Took 10 hairs from the observation area on the back of each rat every 15 days after administration, and measured the hair length with a vernier caliper. After 60 days of administration, the skin of the experimental observation area was taken for routine tissue dehydration, paraffin embedding, HE staining, and light microscopy to observe the histopathological changes of the rat skin hair follicles and sebaceous glands. Semi-quantitative analysis was performed for each group. The grading criteria are as follows: the normal structure of dermal tissue cells, subcutaneous hair follicles, and sebaceous glands is marked as […]: no hyperplasia of dermal tissue is found, the lesions of hair follicles and sebaceous glands are limited, and no inflammation is found under the skin is marked as “+”: no obvious hyperplasia of dermal tissue is found, and the follicles are obviously cystic. No obvious hyperplasia of sebaceous glands is found, and no inflammation is found under the skin is marked as “+”: the dermal tissue has segmental hyperplasia, which is not obvious, A small number of hair follicles have cystic changes, and the sebaceous glands have mild hyperplasia and hypertrophy. There is no obvious inflammation under the skin, which is marked as “++”: the dermal tissue cells of the skin have different degrees of segmental hyperplasia, and some hair follicles have cystic changes, showing uneven size of hair follicles, and no cells around. The sebaceous glands have hyperplasia, and the nuclei in the proliferative glands are few. A few rats have mild inflammatory hyperplasia under the skin, which is marked as “+++”.

[2] = tested on: mouse eczema model; assay: Mouse eczema model: ear thickness; type: in vivo, C57BL/6 mice; conditions: after modeling, 14th day; 0.1% cream for external use twice a day, 10 days (positive: aloxone)
Excerpt: Preparation method of CLY cream: the matrix components included methyl silicone oil (15%), stearic acid (6%), white vaseline (5%), liquid paraffin (5%), octadecanol (5%), glycerin (20%), alkyl aryl polyglycol ether (1%), fatty alcohol polyoxyethylene ether (1%), Tween-807 (1%), ethyl paraben (0.1%), distilled water (about 31-55%), and it was mixed with an appropriate amount of CLY series compound liquid to form a mixed emulsion. The cream matrix used in this embodiment refers to the matrix components after the active ingredients were removed from the cream.
(§1) SPF grade female C57BL/6 mice were purchased at the age of 8 weeks (0.02 kg), 6 in each group, and randomly divided into the blank control group, model group, positive drug group, CLY-1 treatment group (0.1% CLY-1 cream for external use), CLY-2 treatment group (0.1% CLY-2 cream for external use), CLY-3 treatment group (0.1% CLY-3 cream for external use), CLY-4 treatment group (0.1% CLY-4 cream for external use), CLY-8 treatment group (0.1% CLY-8 cream for external use), CLY-11 treatment group (0.1% CLY-11 cream for external use) CLY-19 treatment group (0.1% CLY-19 cream for external use), CLY-36 treatment group (0.1% CLY-36 cream for external use) and CLY-39 treatment group (0.1% CLY-39 cream for external use).
(§2) Model establishment: the normal control group mice were smeared with 75% ethanol 14.3 ul on both ears, while the model group, positive drug group and treatment group were smeared with 1 nmol/L carpotriol liniment 14.3 ul on both ears at a regular time every day, and then smeared with 20 g/L OVA 25 ul after air drying, once a day, for 12 days to make a model.
(§3) From 4 days after the start of modeling, applied the cream matrix on the ear skin of mice in the blank control group and the model group, applied aloxone on the ear skin of mice in the positive drug group, and applied the treatment cream on the ear skin of mice in each treatment group respectively, twice a day in the morning and evening, for 10 consecutive days, took photos every day, and recorded scores.
(§4) The thickness of mouse auricle was measured and recorded with ear thickness measuring instrument before and on the 14th day respectively. After the measurement on the 14th day, the mice were sacrificed. Blood was taken and serum was separated.

[3] = tested on: serum IL-4; assay: Mouse eczema model: serum IL-4 (ELISA); type: in vivo, C57BL/6 mice; conditions: after modeling, 0.1% cream for external use twice a day, 10 days (positive: aloxone)
Excerpt: as §1, §2, §3, §4
The enzyme-labeled plate was coated with rabbit anti-mouse interleukin (IL)-4 antibody, stayed at 4° C. overnight, and the reaction was stopped according to the instructions of the ELISA kit to detect the level of serum IL-4. ELISA kits were all purchased from Raybiotech, USA.

SMILES | number of rats with hair follicle and sebaceous gland grade +++ ([1]; external 5% tincture) | number of rats with hair follicle and sebaceous gland grade +++ ([1]; intravenous 2 mg/kg·d) | number of rats with hair follicle and sebaceous gland grade ++ ([1]; external 5% tincture) | number of rats with hair follicle and sebaceous gland grade ++ ([1]; intravenous 2 mg/kg·d) | number of rats with hair follicle and sebaceous gland grade + ([1]; external 5% tincture) | number of rats with hair follicle and sebaceous gland grade + ([1]; intravenous 2 mg/kg·d) | number of rats with hair follicle and sebaceous gland grade ± ([1]; external 5% tincture) | number of rats with hair follicle and sebaceous gland grade ± ([1]; intravenous 2 mg/kg·d) | number of rats with hair follicle and sebaceous gland grade − ([1]; external 5% tincture) | number of rats with hair follicle and sebaceous gland grade − ([1]; intravenous 2 mg/kg·d) | Ear thickness [2] | IL-4 level in peripheral blood [3]
CCN1CCC[C@@H](N(C(=O)c2ccc(-n3nnc4cccnc43)cc2)c2ncccc2Cl)C1 [CLY-2, (R)-4-(3H-[1,2,3]triazolo[4,5-b]pyridin-3-yl)-N-(3-chloropyridin-2-yl)-N-(1-ethylpiperidin-3-yl)benzamide] | 0 | 0 | 1 | 0 | 3 | 3 | 6 | 7 | 0 | 0 | 0.246 mm | 5.58 pg/mL
CN1CCC[C@@H](N(C(=O)c2ccc(-n3nnc4cccnc43)cc2)c2ncccc2Cl)C1 [CLY-1, (R)-4-(3H-[1,2,3]triazolo[4,5-b]pyridin-3-yl)-N-(3-chloropyridin-2-yl)-N-(1-methylpiperidin-3-yl)benzamide] | 0 | 0 | 1 | 0 | 4 | 4 | 5 | 6 | 0 | 0 | 0.251 mm | 6.76 pg/mL
Nc1ccccc1-c1ccc(C(=O)N(c2ncccc2Cl)[C@@H]2CCCNC2)cc1 [CLY-39] | 0 | 0 | 1 | 1 | 3 | 2 | 6 | 7 | 0 | 0 | 0.246 mm | 5.75 pg/mL
COC1CCCC(N(C(=O)c2ccc(-n3nnc4cccnc43)cc2)c2ncccc2Cl)C1 (stereo not drawn) [CLY-5] | 0 | 0 | 0 | 0 | 4 | 2 | 6 | 8 | 0 | 0 | – | –
CNC1CCCC(N(C(=O)c2ccc(-n3nnc4cccnc43)cc2)c2ncccc2Cl)C1 (stereo not drawn) [CLY-3] | 0 | 0 | 1 | 1 | 5 | 4 | 4 | 5 | 0 | 0 | 0.297 mm | 7.32 pg/mL
Nc1cc(N2CCCCC2)nc(N)[n+]1[O-] [Positive control group, minoxidil, reference compound] | 1 | – | 3 | – | 4 | – | 2 | – | 0 | – | – | –
